melting point	SMILES
240 °C	NC1c2ccccc2-c2[nH]c(=O)c3nccn3c21 (centres undefined)
108 to 110 °C	CCN(CC)c1ccc(-n2c(C(F)(F)F)nn(C)c2=S)c(Cl)c1
160 to 161 °C	O=S(=O)(Nc1nccnc1OCc1ccc(CO)cc1)c1cccc(Cl)c1Cl
89 to 90 °C	CCc1c(Sc2cc(Cl)cc(Cl)c2)c(CO)nn1CCO
199 to 201 °C	CCOc1nn(CCOc2ccc3ccccc3c2CC(=O)O)cc1C(=O)NCc1ccc(Cl)cc1Cl
125 to 126 °C	COC1CCC2(C)C(CCC3C2CCC2(C)C(C(C)=O)CCC32)C1 (centres undefined)
90 to 92 °C	CC(C)C[C@H](NC(=O)[C@H](Cc1ccccc1)NP(=O)(OCc1ccccc1)OCc1ccccc1)C(=O)O
150 °C	CC(C)OC(=O)c1cccc(C(O)(c2ccc3c(c2)c(-c2cccc(Cl)c2)cc(=O)n3C)c2cncn2C)c1 (centres undefined)
242 °C	Fc1cccc(COc2ccc(Nc3ncnc4cc(C#Cc5ccccn5)sc34)cc2Cl)c1
258 to 266 °C	CN=C(O)c1cc(Cl)c(Sc2ccccc2C(=O)O)cc1C(=O)O
176 to 177 °C	CNC(CSCC(=O)c1ccc2[nH]c3ncc(Cl)cc3c2c1)NC
133 to 139 °C	O=C(O)c1nc2ccccc2nc1Cl
87 to 92 °C	CC(C)C[C@H](NC(=O)[C@H](Cc1c[nH]cn1)NC(=O)C(CC(=O)NCCc1ccccc1)Cc1cccc2ccccc12)[C@@H](O)CCO (some centres undefined)
186 to 189 °C	c1cncc(-c2cccn3cnnc23)c1
211 to 212 °C	CCCNC(=O)NS(=O)(=O)c1ccccc1I
133 to 134 °C	CS(=O)c1ccc(-c2nn(CC3CC3)c(=O)cc2-c2ccc(F)cc2)cc1 (centres undefined)
> 350 °C	O=C(O)c1ccc(-c2cnc3[nH]c(=O)n(CC4CCCCC4)c3n2)cc1
115 to 117 °C	CN1CCCC1=NC(=O)Nc1ccc(OCc2ccccc2)c(Cl)c1

melting point	SMILES
195 to 196 °C	CCCCS(=O)(=O)NC1Cc2ccc(-c3ccc(=O)[nH]n3)cc2C1 (centres undefined)
176 to 179 °C	COc1cc(C)nc(NC(=O)NS(=O)(=O)c2ccccc2OCCOS(C)(=O)=O)n1
> 220 °C	COc1ccc(-c2ccc3[nH]c4ncc(Cl)cc4c3c2)cc1
100 to 101 °C	CCOC(=O)c1cc2c(C)c(OCc3ccccc3)ccc2n1C
185 to 187 °C	O=c1oc2ccccc2c2ccc(O)c(O)c12
130 to 132 °C	NS(=O)(=O)c1cccc(C(O)C(F)(F)F)c1 (centres undefined)
66 to 68 °C	CCN1CC(=O)N(CCc2ccccc2)C1=S
178 to 180 °C	O=C(NCc1ccc(F)c(F)c1)c1ccnc(N2CCN(Cc3cccnc3)C2=O)c1
112 to 113 °C	Cc1oc(-c2ccco2)nc1COc1ccc(CON=C(CCCCC(=O)O)c2ccccc2)cc1
159 to 160 °C	CNC(=O)N(O)C(C)c1cc(C(C)(C)C)c(O)c(C(C)(C)C)c1 (centres undefined)
132 to 133 °C	Cn1nc(Cl)n(-c2ccccc2CBr)c1=O
138 to 141 °C	CCc1cc2c(s1)SCC1CC(=O)N(c3ccc(Cl)cc3)N=C21 (centres undefined)
193 to 194 °C	CC1CC(=O)NN=C1c1ccc2c(c1)SCC(=O)N2C (centres undefined)
146 to 148 °C	COc1ccc(SC2=C(C(=O)O)CCC2=CCCc2ccccc2)cc1OC
> 285 °C	CCn1c(=O)c2[nH]c(/C=C/c3cccc(OC)c3[N+](=O)[O-])nc2n(CC)c1=O
141 to 142 °C	Cc1nn(C)c2c1Nc1ncccc1N(C)C2=O
96 to 97 °C	CCOC(=O)c1nn(-c2ccc(C=O)cc2)nc1-c1ccccc1
204 to 207 °C	CC(=O)c1c(C)[nH]c(C)c1C

SMILES	melting point
O=C(CC(=O)Nc1ccccc1Cl)CS(=O)(=O)C(c1ccc(Cl)cc1)c1ccc(Cl)cc1	92 to 95 °C
CN1C2C=C(c3c[nH]c(-c4ccc(F)cc4)c3-c3ccncc3)CC1CC2 (centres undefined)	243 to 245 °C
C[C@@H]1C(=O)C[C@H]2C[C@@H]1OO[C@@]2(C)/C=C/c1c(F)c(F)c(F)c(F)c1F	128 °C

Reference: a melting point compilation (Tetko et al.; mined from patent text by program, amines drawn as free bases though some values may be those of a salt)
